Where “and” joins values, the source holds several entries; their conditions need not be identical. Identical values can stand only once.
Columns and labels:
calf thymus DNA = assay: Calf thymus DNA alkylation, quantitation of adenine N3 adduct; format: biochemical; details: for conversion to thermally released adenine adduct 66: 4° C., 72 h, ca. 150 bp, then 100° C., 30 min, pH 7.0, four runs
Description: This was addressed through a study of the alkylation of calf thymus DNA. Optimized conditions for the alkylation were established for (−)-44 on an analytical scale (100 μg of agent). For this purpose, the long-wavelength UV absorption of the agent and the adduct provided a useful quantitative measure of the adenine adduct, unreacted starting material and any side products (solvolysis or rearrangement), Table 3. Analytical HPLC analysis was used to confirm the identity of the products through correlation of retention times and UV spectral data with authentic materials. The preparative DNA alkylation reaction and subsequent isolation of (+)-66 was carried out under conditions determined to provide complete consumption of the agent in the presence of a large excess of DNA Thus, extraction (EtOAc) of the aqueous buffer solution containing calf thymus DNA following alkylation (4° C., 72 h, 150 bp) afforded no recovered (−)-44, and only a small amount (<5%) of the rearranged product 65. Conducting the reaction at 4° C. in the presence of a large excess of DNA precluded competitive solvolysis. Thermal treatment of the alkylated DNA in aqueous 10 mM sodium phosphate buffer (100° C., 30 min, pH 7.0) followed by EtOAc extraction provided 66 in 90-95% conversion, ≧95% purity (by HPLC). Repeating this thermal treatment provided little or no additional adduct. No trace of a competing guanine adduct could be detected. This high conversion to a single adduct established that 44 participates exclusively in the adenine N3 alkylation reaction under the conditions examined.

w836 DNA (146 bp) = assay: DNA alkylation selectivity and efficiency, thermally-induced strand cleavage of w836 DNA; format: biochemical
Description: FIG. 6 illustsrates thermally-induced strand cleavage of w836 DNA (146 bp, nucleotide nos. 5189-91): DNA-agent incubation for 24 h ((−)-iso-CBI-TMI) at 25° C., removal of unbound agent and 30 min of thermolysis (100° C.), followed by denaturing 8% PAGE and autoradiography; lane 1, control DNA; lanes 2-5, Sanger G, C, A, and T sequencing reactions; lanes 6-8 (−)-iso-CBI-TMI ([…] to 1×10^−5 M); lanes 9-10, (+)-duocarmycin SA (1×10^−5 to 1×10^−6 M); lanes 11-12, (+)-iso-CBI-TMI (1×10^−2 and 1×10^−3).
DNA Alkylation Selectivity and Efficiency: The DNA alkylation properties of the agents were examined within w794 and w836 duplex DNA for which comparative results are available for related agents. (Boger, D. L., et al., J. Am. Chem. Soc. 1994, 116, 11335; Boger, D. L., et al., J. Am. Chem. Soc. 1994, 116, 6461; and Boger, D. L., et al., J. Am. Chem. Soc. 1995, 117, 11647) The alkylation site identification and the assessment of the relative selectivity among the available sites were obtained by thermally-induced strand cleavage of the singly 5′ end-labeled duplex DNA after exposure to the agents. […]

COc1cc2cc(C(=O)N3CC4CC45C(=O)c4ccccc4C=C35)[nH]c2c(OC)c1OC (single isomer, unassigned; (-)) [(−)-iso-CBI-TMI, 2-[(5,6,7-Trimethoxyindol-2-yl)carbonyl]-1,2,9,9a-tetrahydrocyclopropa[c]benzo[f]indol-8-one]
conversion to thermally released adenine adduct 66 (calf thymus DNA): 95% and 90-95%
conversion to thermally released adenine adduct 66 (calf thymus DNA; listed as (−)-44): 90-95%
consumption of the agent accounted for by adenine N3 addition (calf thymus DNA; in the presence of duplex DNA): 90-100%
DNA alkylation sites / selectivity (w836 DNA (146 bp)): same sites as (+)-duocarmycin SA
